Measured values from patent publication US6409996B1, “Composition comprising one or more flavonoids, method of obtaining such composition and use thereof as UV-absorbing agent” (Flavone Sunproducts A/S, priority 1997, dated 2002).

Assay: solubility experiment in water at room temperature
Format: physicochemical
Protocol: A solubility experiment was carried out in which commercially available naringin was dissolved in water at room temperature. The naringin was dissolved in an amount of 0.1 g/l corresponding to around 0.01 weight-%. A pulverous test sample of a composition obtained from Citrus Aurantium by the method according to the invention and comprising about 20 weight-% naringin was also dissolved in water at room temperature. The composition was dissolved in an amount of […], corresponding to a […] solution of naringin weight-%. Accordingly the solubility of naringin is 300 times higher in water when obtained by the method according to the invention and being in the composition obtained from Citrus Aurantium by said method, than commercially available naringin.

SMILES: C[C@@H]1O[C@@H](O[C@H]2[C@H](Oc3cc(O)c4c(c3)O[C@H](c3ccc(O)cc3)CC4=O)O[C@H](CO)[C@@H](O)[C@@H]2O)[C@H](O)[C@H](O)[C@H]1O [naringin, naringenin-7β-neohesperidoside; 5,7,4′-trihydroxyflavanone-7β-neohesperidoside]
- amount dissolved in water: 0.1 g/L
- amount dissolved in water, as weight-% (commercially available naringin): around 0.01 weight-%
